Structures are written as SMILES.

For five molecules, IC50 results are on record in patent US7345082B2, “Phosphinic acids” (Hoffmann-La Roche Inc., priority 2003, dated 2008).

The target in this experiment is T1, purified BACE protein (β-secretase) (Homo sapiens, UniProt P56817).
T1 construct: made in house
T1 sequence (P56817 46-501): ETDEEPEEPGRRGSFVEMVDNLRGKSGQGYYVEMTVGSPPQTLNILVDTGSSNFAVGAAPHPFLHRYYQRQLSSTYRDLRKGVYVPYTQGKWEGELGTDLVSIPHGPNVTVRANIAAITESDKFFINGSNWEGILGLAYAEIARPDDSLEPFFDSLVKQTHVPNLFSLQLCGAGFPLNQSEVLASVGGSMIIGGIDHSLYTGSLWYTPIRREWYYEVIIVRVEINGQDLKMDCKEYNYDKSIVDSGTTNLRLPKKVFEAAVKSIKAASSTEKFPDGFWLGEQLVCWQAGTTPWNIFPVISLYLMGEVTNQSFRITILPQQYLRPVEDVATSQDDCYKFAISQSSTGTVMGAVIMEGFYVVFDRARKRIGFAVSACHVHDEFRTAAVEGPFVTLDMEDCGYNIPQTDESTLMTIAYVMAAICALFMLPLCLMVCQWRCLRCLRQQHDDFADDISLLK
The experiment can be described thus: Competitive Radioligand Binding Assay (RLBA). Particulars: β-secretase inhibition; displacement of tritiated Compound A from BACE-coated plates, pH 4.1; read-out: IC50 in vitro. As for the experimental part:
Competitive Radioligand Binding Assay (RLBA)
96 well microplates (Optiplate Packard) are coated with purified BACE protein (see e.g. GB 2,385,124: Examples 1 and 2) using a concentration of 1 μg/ml in 30 mM sodium citrate buffer adjusted to pH 5.5. The coating is achieved by incubation of 100 μl/well for 1-3 days at 4° C. The plate is then washed with 2×300 μl/well of 10 mM citrate pH 4.1. To each well 100 μl binding buffer (30 mM citrate, 100 mM NaCl, 0.1% BSA, pH 4.1) is dispensed. The test compound is added in 5 μl from a DMSO stock solution or appropriate dilutions. To this the tracer (tritiated Compound A, see e.g. GB 2,385,124: Example 4) is added in 10 µl/well from a 10 μCi/ml stock solution in binding buffer. After incubation for 1.5-2 hours in a humid chamber at ambient temperature the plate is washed with 2×300 μl/well water and flipped on a dry towel. Following the addition of 50 μl/well Micro-Scint20 (Packard) the plate is sealed and vibrated for 5 seconds. The bound radioactivity is counted on a Topcount (Packard). Total binding is typically between 2000 and 10000 cpm/well depending mainly on the purity and concentration of the BACE protein. Non-specific binding as assessed by competition with >1 μM peptidic inhibitor (Bachem # H-4848) is typically between 30 and 300 cpm/well. The IC-50 values are calculated by Microsoft Excel FIT.
The term IC50 denotes the concentration needed to halve the response being measured. As to `CCCN(CCC)C(=O)c1cccc(C(=O)N[C@@H](Cc2ccccc2)P(=O)(O)CC(C)C(=O)NCCC(C)C)c1` (mixture of isomers) [Compound I-37, [(R)-1-(3-dipropylcarbamoyl-benzoylamino)-2-phenyl-ethyl]-[2-(3-methyl-butylcarbamoyl)-propyl]-phosphinic acid], the IC50 turned out to be 40 nM.

Regarding `CCCOc1cc(C(=O)N[C@@H](Cc2ccccc2)P(=O)(O)CC(C)C(=O)Nc2ccccc2)cc(N2CCCC2=O)c1` (stereo partly drawn) [Compound I-5, {(R)-1-[3-(2-oxo-pyrrolidin-1-yl)-5-propoxy-benzoylamino]-2-phenyl-ethyl}-(2-phenylcarbamoyl-propyl)-phosphinic acid], the IC50 amounted to 50 nM.

On to `CCCN(CCC)C(=O)c1cccc(C(=O)NC(Cc2ccccc2)P(=O)(O)CC(C(=O)Nc2ccc(C)cc2)C(C)C)c1` (centres unmarked) [Compound I-14, [1-(3-dipropylcarbamoyl-benzoylamino)-2-phenyl-ethyl]-(3-methyl-2-p-tolylcarbamoyl-butyl)-phosphinic acid], for which the IC50 was determined as 200 nM.

Consider `CCCN(CCC)C(=O)c1cccc(C(=O)N[C@@H](Cc2ccccc2)P(=O)(O)CC(C)C(=O)Nc2ccccc2)c1` (mixture of isomers) [Compound I-18, [(R)-1-(3-dipropylcarbamoyl-benzoylamino)-2-phenyl-ethyl]-(2-phenylcarbamoyl-propyl)-phosphinic acid], for which the IC50 stood at 10 nM.

On to `CCCN(CCC)C(=O)c1cccc(C(=O)N[C@@H](Cc2ccccc2)P(=O)(O)CC(C)C(=O)NC2CCCCC2)c1` (stereo partly drawn) [Compound I-42, (2-cyclohexylcarbamoyl-propyl)-[(R)-1-(3-dipropylcarbamoyl-benzoylamino)-2-phenyl-ethyl]-phosphinic acid], for which the IC50 was determined as 20 nM.
